Reference: US20120077851A1, “Urea Derivatives as Kinase Inhibitors” (MEDOLUTION LIMITED, priority 2009, published 2012)

Assay: Pharmacokinetics of Compound A and Regorafenib in rats
Format: in vivo
Conditions: compared to Regorafenib

In the case of [2H]C([2H])([2H])NC(=O)c1cc(Oc2ccc(NC(=O)Nc3ccc(Cl)c(C(F)(F)F)c3)c(F)c2)ccn1 [Compound A, 4-(4-(3-(4-chloro-3-(trifluoromethyl)phenyl)ureido)-3-fluorophenoxy)-N-d3-methylpicolinamide], the T1/2 is reported as “prolonged T1/2”, the clearance is reported as “significant slower clearance” and the pharmacokinetic profile (FIG. 1, rats) is reported as “better pharmacokinetic profile”. For the same compound, the exposure (oral administration route at equal dose) was “improved exposure”.
